Each block holds one compound with its values, some of them ahead of it.
Experiments:
Hygroscopicity (DVS) = format: physicochemical; settings: for hygroscopicity class (in words) / hygroscopic weight gain: at 80% humidity; for hygroscopic weight gain: tartrate; for hygroscopicity (in words): DVS experiments on the Active Pharmaceutical Ingredients
[1] = Equilibrium solubility of crystal forms under simulated in vivo conditions; format: physicochemical; settings: simulated in vivo conditions (pH=2.0, 4.6, 6.8)
[2] = Conversion experiments between the crystal forms; format: physicochemical; settings: conversion between Crystal Form A and Form B
[3] = Preliminary stability tests (high temperature, high humidity, illumination); format: physicochemical; settings: high humidity, and illumination, versus free base and other salt forms
From the text: However, unlike phosphates and the like, the above increase in solubility is not accompanied by a significant increase in hygroscopicity. […] The above and other advantages will be favorable for overcoming various challenges faced by the development of pharmaceutical products containing selective CDK 9 kinase inhibitors of Formula I.

physchem = settings: for solubility: 25 °C, thermodynamic from solid
From the text: Perform scale-up experiments on the above six salts to determine solubilities of various salts in different pH buffers and deionized water, and compare with the free base.

SMILES: CNc1nc(C)c(-c2nc(Nc3cccc(S(N)(=O)=O)c3)ncc2F)s1 [LS007, 3-(5-fluoro-4-(4-methyl-2-(methylamino)thiazol-5-yl)pyrimidin-2-ylamino)-benzenesulfonamide]
hygroscopicity (in words) (Hygroscopicity (DVS)): very low hygroscopicity

SMILES: CNc1nc(C)c(-c2nc(Nc3cccc(S(N)(=O)=O)c3)ncc2F)s1.O=P(O)(O)O [Phosphate]
hygroscopicity (in words) (Hygroscopicity (DVS)): highest hygroscopicity
water absorbed (Hygroscopicity (DVS); DVS, 60% RH): 11.71%

Second part, the compound after the results:

hygroscopicity class (in words) (Hygroscopicity (DVS)): non-hygroscopic
hygroscopic weight gain (Hygroscopicity (DVS)): 0.22%
equilibrium solubility (in words) [1]: greater than that of Form B
crystal form stability (in words) [2]: more stable crystal form
SMILES: CNc1nc(C)c(-c2nc(Nc3cccc(S(N)(=O)=O)c3)ncc2F)s1.O=C(O)C(O)C(O)C(=O)O [Form A, 3-(5-fluoro-4-(4-methyl-2-(methylamino)thiazol-5-yl)pyrimidin-2-ylamino)-benzenesulfonamide tartrate]

hygroscopicity class (in words) (Hygroscopicity (DVS)): non-hygroscopic
hygroscopic weight gain (Hygroscopicity (DVS)): 0.11%
SMILES: CNc1nc(C)c(-c2nc(Nc3cccc(S(N)(=O)=O)c3)ncc2F)s1.O=C(O)C(O)C(O)C(=O)O [Form B, 3-(5-fluoro-4-(4-methyl-2-(methylamino)thiazol-5-yl)pyrimidin-2-ylamino)-benzenesulfonamide tartrate]

hygroscopicity (in words) (Hygroscopicity (DVS)): lowest hygroscopicity
stability (in words) [3]: better stability
solubility (physchem; pH 2, aqueous buffer): 4.3 mg/mL
solubility (physchem; pH 4.5, aqueous buffer): 0.0075 mg/mL
solubility (physchem; pH 6.8, aqueous buffer): 0.0037 mg/mL
solubility (physchem; water): 0.418 mg/mL
solubility compared to the raw materials (in words) (physchem; pH 2.0 buffer and deionized water, HPLC): significantly increased
SMILES: CNc1nc(C)c(-c2nc(Nc3cccc(S(N)(=O)=O)c3)ncc2F)s1.O=C(O)C(O)C(O)C(=O)O [Tartrate, 3-(5-fluoro-4-(4-methyl-2-(methylamino)thiazol-5-yl)pyrimidin-2-ylamino)-benzenesulfonamide tartrate]

Reference: patent publication US11566024B2 (CHANGZHOU QIANHONG BIOPHARMA CO., LTD, priority 2018, dated 2023)
